Test results taken from the supplement of paper PMC10307832.

Legend:
Test in all cases: relative viability (nuclei count vs DMSO), 5 days (fraction); higher = more cells survive
[1] = compound: C1=CC(=CC=C1NC(=S)NNC2=C(C=C(C=C2[N+](=O)[O-])C(F)(F)F)[N+](=O)[O-])F [Kobe2602] + CC(C)C[C@H](NC(=O)[C@H](Cc1ccccc1)NC(=O)c1cnccn1)B(O)O [Bortezomib] (partner 0.002 µM)
Procedure, shortened: (§1)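 Five library-drug doses in √10 steps were combined with a fixed anchor-drug dose, or a single drug was given alone, by pin tool to lung cancer cell lines in 1536-well plates the day after seeding. Nuclei were stained and counted after 5 days. Relative viability is the nuclei count in treated wells over that in vehicle wells, taken as the median of duplicate plates.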

[2] = compound: O[C@@H](COc1cccc2ncccc12)CN1CCN([C@@H]2c3ccccc3[C@@H]3[C@H](c4ccccc42)C3(F)F)CC1 [Zosuquidar] + Nc1nc2[nH]cc(CCc3ccc(C(=O)N[C@@H](CCC(=O)O)C(=O)O)cc3)c2c(=O)[nH]1 [Pemetrexed] (partner 0.2 µM)
Procedure, shortened: as §1

[3] = compound: C1=CC(=CC=C1NC(=S)NNC2=C(C=C(C=C2[N+](=O)[O-])C(F)(F)F)[N+](=O)[O-])F [Kobe2602] + C[C@]1(O)C[C@@H](c2nc(-c3ccc4ccc(-c5ccccc5)nc4c3)c3c(N)nccn32)C1 [Linsitinib] (partner 1 µM)
Procedure, shortened: as §1

[4] = compound: COc1cc2nccc(Oc3ccc(NC(=O)C4(C(=O)Nc5ccc(F)cc5)CC4)cc3)c2cc1OC [Cabozantinib] + CC(=O)c1c(C)c2cnc(Nc3ccc(N4CCNCC4)cn3)nc2n(C2CCCC2)c1=O [Palbociclib] (partner 0.5 µM)
Procedure, shortened: as §1

Cell Line	relative viability ([1]; first compound 0.2 µM)	relative viability ([1]; first compound 0.6325 µM)	relative viability ([1]; first compound 2 µM)	relative viability ([1]; first compound 6.325 µM)	relative viability ([1]; first compound 20 µM)	relative viability ([2]; first compound 0.01 µM)	relative viability ([2]; first compound 0.03162 µM)	relative viability ([2]; first compound 0.1 µM)	relative viability ([2]; first compound 0.3162 µM)	relative viability ([2]; first compound 1 µM)	relative viability ([3]; first compound 0.2 µM)	relative viability ([3]; first compound 0.6325 µM)	relative viability ([3]; first compound 2 µM)	relative viability ([3]; first compound 6.325 µM)	relative viability ([3]; first compound 20 µM)	relative viability ([4]; first compound 0.02 µM)	relative viability ([4]; first compound 0.06325 µM)	relative viability ([4]; first compound 0.2 µM)	relative viability ([4]; first compound 0.6325 µM)	relative viability ([4]; first compound 2 µM)
HARA	1.17	1.1	0.994	1.14	1.12	0.259	0.234	0.247	0.31	0.277	0.959	1.02	0.948	0.839	0.847	0.323	0.29	0.218	0.344	0.263
NCI-H3122	1.09	0.96	0.93	1.04	1.08	0.19	0.188	0.192	0.19	0.204	1.01	1.05	1.01	1.06	1.11	0.183	0.179	0.168	0.192	0.211
201T	0.956	1.05	1.12	1.18	1.13	0.315	0.334	0.35	0.322	0.334	0.968	1.04	1.05	0.955	0.941	0.352	0.342	0.332	0.371	0.384
SK-LU-1	1.38	1.55	1.18	1.37	1.61	0.975	0.795	1.06	1.03	0.962	1.05	1.15	1.04	1.04	1.27	0.357	0.486	0.439	0.344	0.364
NCI-H1734	1.06	0.963	0.872	1.01	0.952	0.366	0.382	0.395	0.422	0.447	0.895	0.899	0.849	0.964	0.897	0.4	0.339	0.381	0.389	0.325
NCI-H1651	0.924	0.961	0.956	0.94	1.01	0.55	0.653	0.425	0.533	0.644	0.83	1.14	1.07	0.976	0.906	0.512	0.561	0.52	0.495	0.495
PC-3 [JPC-3]	0.905	0.812	0.766	0.871	0.795	1.34	1.04	0.873	1.1	0.366	0.952	0.872	0.965	0.976	0.956	0.574	0.559	–	0.514	0.636
NCI-H1915	1.01	0.998	0.958	0.99	0.931	0.518	0.527	0.413	0.489	0.474	1.08	1.12	1.08	1.08	1.1	0.584	0.57	0.518	0.506	0.55
COR-L23	0.88	1.04	0.914	1.07	0.92	0.222	0.188	0.201	0.198	0.189	0.798	1.09	0.941	0.894	0.939	0.299	0.295	0.29	0.391	0.297
HOP-62	0.875	1.15	0.508	0.75	0.818	0.256	0.38	0.341	0.308	0.295	0.837	1.11	0.974	1.01	1.12	0.503	0.488	0.416	0.506	0.491
NCI-H1975	0.363	0.392	0.297	0.365	0.358	0.279	0.299	0.293	0.272	0.29	0.969	0.917	0.978	0.859	0.818	0.533	0.777	0.647	0.418	0.557
BEN	0.908	0.897	0.938	0.821	0.99	0.75	0.738	0.476	1.05	0.684	0.988	1.06	0.967	0.858	0.915	0.525	0.507	0.47	0.425	0.463
EMC-BAC-2	1.08	1.17	1.06	1.12	1.12	0.459	0.417	0.441	0.457	0.335	0.794	0.869	0.817	0.796	0.793	0.531	0.551	0.552	0.533	0.543
NCI-H441	0.549	0.582	0.527	0.575	0.687	0.29	0.286	0.249	0.23	0.268	0.612	0.746	0.48	0.557	0.623	0.157	0.286	0.181	0.23	0.184
LU99A	1.13	1.39	1.12	1.17	1.22	0.168	0.175	0.155	0.165	0.171	0.538	0.53	0.471	0.585	0.631	0.381	0.419	0.447	0.39	0.362
NCI-H2405	1.05	0.999	0.936	0.968	0.999	1.08	0.914	0.956	1.2	0.23	0.961	1.06	0.932	0.971	0.994	0.509	0.568	0.568	0.569	0.519

Cell Line	relative viability ([1]; first compound 0.2 µM)	relative viability ([1]; first compound 0.6325 µM)	relative viability ([1]; first compound 2 µM)	relative viability ([1]; first compound 6.325 µM)	relative viability ([1]; first compound 20 µM)	relative viability ([2]; first compound 0.01 µM)	relative viability ([2]; first compound 0.03162 µM)	relative viability ([2]; first compound 0.1 µM)	relative viability ([2]; first compound 0.3162 µM)	relative viability ([2]; first compound 1 µM)	relative viability ([3]; first compound 0.2 µM)	relative viability ([3]; first compound 0.6325 µM)	relative viability ([3]; first compound 2 µM)	relative viability ([3]; first compound 6.325 µM)	relative viability ([3]; first compound 20 µM)	relative viability ([4]; first compound 0.02 µM)	relative viability ([4]; first compound 0.06325 µM)	relative viability ([4]; first compound 0.2 µM)	relative viability ([4]; first compound 0.6325 µM)	relative viability ([4]; first compound 2 µM)
NCI-H2009	0.961	1.11	0.97	1.04	0.949	1.04	1.04	1.01	0.902	1.06	1.13	1.2	1.1	1.19	1.15	0.209	0.25	0.269	0.277	0.141
HCC-827	1.09	1.15	0.965	1.01	1.08	0.237	0.272	0.255	0.263	0.279	0.902	0.936	0.925	0.955	0.922	0.415	0.535	–	0.577	0.399
NCI-H838	0.748	0.924	0.99	0.749	0.725	0.239	0.236	0.254	0.251	0.268	0.91	1.12	0.88	0.992	1.07	0.216	0.244	0.231	0.218	0.21
CAL-12T	0.997	1.17	0.921	0.931	0.93	1.08	1.15	0.983	1.23	1.1	0.707	0.821	0.705	0.916	0.709	0.435	0.583	0.408	0.497	0.572
RERF-LC-KJ	1.11	1.15	1.15	1.15	1.15	0.456	0.459	0.478	0.518	0.467	0.826	0.868	0.814	0.829	0.824	1.03	1.2	0.652	0.568	1.07
NCI-H2347	1.16	1.01	0.879	0.827	1.44	0.425	0.34	0.413	0.432	0.483	0.924	0.884	0.947	0.997	1.03	0.474	0.466	0.49	0.478	0.401
PC-14	0.814	0.848	0.818	0.837	0.859	0.119	0.147	0.134	0.128	0.142	0.946	0.986	0.929	0.94	0.929	0.511	0.703	–	0.516	0.417
HCC-366	1.13	1.01	1.01	1.07	1.12	0.177	0.155	0.147	0.145	0.184	0.711	0.743	0.629	0.664	0.647	0.491	0.503	0.399	0.364	0.451
LCLC-97TM1	0.691	0.757	0.501	0.611	0.526	0.192	0.191	–	0.158	0.183	0.221	0.179	0.159	0.196	0.202	0.189	0.228	0.221	0.253	0.222
HCC-44	0.882	0.897	0.826	0.905	0.813	0.613	0.708	0.663	0.618	0.632	0.739	0.668	0.632	0.624	0.766	1.04	1.05	0.998	0.977	1.03
A-427	0.998	0.991	0.982	0.779	1.07	1.01	0.996	0.806	1.02	0.796	1.1	1.15	1.09	0.954	1.17	0.524	0.584	0.521	0.493	0.527
NCI-H23	1.01	1.11	0.973	0.998	1.09	0.601	–	0.612	0.843	0.657	0.528	0.706	0.477	0.652	0.525	–	0.541	0.579	0.541	0.437
NCI-H520	0.612	0.713	0.511	0.593	0.537	0.742	0.723	0.788	0.85	0.899	0.997	1.04	1.02	0.984	0.968	0.266	0.245	0.268	0.228	0.203
NCI-H2085	1.07	1.08	0.99	1.07	1.11	0.953	0.697	–	0.956	0.904	0.926	0.829	0.864	0.977	0.97	0.519	0.469	0.524	0.476	0.498
NCI-H661	0.936	0.83	0.78	0.796	0.755	0.914	0.902	0.846	0.928	0.851	0.53	0.559	0.629	0.539	0.581	0.385	0.43	0.425	0.422	0.463
NCI-H322M	1.23	1.23	1.28	1.2	1.21	0.623	0.537	0.548	0.582	0.575	0.88	1.01	0.883	1	0.921	0.533	0.565	0.446	0.498	0.454
